Measurements published in patent US20040151761A1, “Methods and compositions utilizing astaxanthin” (priority 2003, published 2004).
Entries after “also recorded” stand apart in the source; their conditions may differ.

Key:
[1] = Plasma astaxanthin in cats fed astaxanthin diets; format: in vivo, cat
Protocol: (§1) Female domestic short hair cats (8 to 9 months old; 3.2±0.04 kg body weight; Liberty Farms, Waverly, N.Y.) were randomly assigned (n=14/diet) to be fed 0, 1, 5, or 10 mg astaxanthin (109 g astaxanthin/kg oleoresin concentrate from Haematococcus pluvialis, astraZanthin™, La Haye Laboratories, Redmond, Wash.) daily (based on an average intake of 90 g food/day) for 12 weeks. Astaxanthin was incorporated into a commercial basal diet (The Iams Co., Lewisburg, Ohio.) and fed ad libitum. The diet composition was as follows (g/kg): 63.1 moisture, 350.6 protein, 62.7 ash, 213.6 fat, 10.0 Ca, 7.6 P, and 7.1 crude fiber, 21,707 kJ/kg gross energy; the n-6:n-3 fatty acid ratio was 9.9. Cats were housed in a temperature (20 to 22° C.) and light-controlled (14 hour light) facility and body weights were determined at weeks 0, 4, 8 and 12. Blood was collected at week 0 and 8 to assess immune function. To assess the dietary effects of astaxanthin on immune response after an antigenic challenge, all cats were vaccinated (Felocell™, Pfizer, N.Y.) two times (weeks 8 and 10) and blood was collected at week 12 to measure the same immune parameters.

C-reactive protein (CRP) = test: Plasma C-reactive protein in dogs; format: in vivo, dog
Protocol: C-Reactive protein. Changes in acute phase proteins were assessed in plasma by measuring the C-reactive protein (CRP) concentrations using horseradish peroxidase-labeled anti-canine CRP in a solid-phase sandwich immunoassay (Tri Delta Diagnostics, Morris Plains, N.J.).

lipid peroxidation = test: Lipid peroxidation in dogs; format: in vivo, dog
[2] = Body weight of cats fed astaxanthin; format: in vivo, cat
Protocol: as §1

[3] = system: Crandell feline kidney fibroblast cells (CrFK); test: Natural killer cell cytotoxic activity in cats; format: in vivo, cat
Protocol: Natural killer cell cytotoxic activity. Cultures of Crandell feline kidney fibroblast cells (CrFK, ATCC CRL-9761; Crandell et al., 1973) were grown in Dulbecco's Modified Eagles Medium (Sigma, St. Louis, Mo.) with 10% fetal bovine serum, 100 U/mL penicillin, and […] streptomycin sulfate. At 70-90% confluence, cells were trypsinized, washed and adjusted to 2×10^5 cells/mL. One hundred microliters of cell suspension was pipeted into each well of 96-well flat bottom plates (Nunclon, Denmark) and incubated at 37° C. for 8 hours. Ficoll-separated PBMC were adjusted to 1×10^6/mL or 2×10^6/mL and 100 μL of the cell suspensions were added to the CrFK target cells to provide effector:target cell ratios of 5:1 and 10:1. After incubating for 8 hours, 20 μL MTT (5 g/L) were added and the mixture incubated for 4 hours. The supernatant was removed and the formazan resuspended in 100 μL isopropanol. Optical density was measured at 550 nm and the percent of specific cytotoxicity calculated as follows:
(§2) % Specific cytotoxicity=1−(ODeffector+target−ODeffector)/ODtarget×100.

[4] = Absorption of astaxanthin and distribution to blood leukocytes and HDL in cats; format: in vivo, cat
[5] = system: total T, Th, Tc, MHC II and CD21 lymphocyte populations; test: Leukocyte subsets in cats by flow cytometry; format: in vivo, cat; details: by weeks 8 and 12, generally dose-dependent
[6] = system: 8-Hydroxy-2′-deoxyguanosine (8-OHdG); test: Oxidative damage to DNA in dogs (plasma 8-OHdG ELISA); format: in vivo, dog
Protocol: Oxidative damage to DNA. 8-Hydroxy-2′-deoxyguanosine (8-OHdG) was measured in plasma ELISA (BIOXYTECHTM™ 8-OHhdG-EIA Kit, OxisResearch, Portland, Oreg.; sensitivity=0.5 micrograms/L).

[7] = system: Canine thyroid adenocarcinoma cells (target cells); test: Natural killer cell cytotoxic activity in dogs; format: in vivo, dog
Protocol: Natural killer cell cytotoxic activity. Canine thyroid adenocarcinoma cells (target cells) were resuspended to 2×10^5 cells/mL in Dulbecco's Modified Eagles Medium (Sigma, St. Louis, Mo.) containing 100 mL/L fetal bovine serum, 100 U/mL penicillin, and […] streptomycin sulfate. Ficol-separated PBMC (effector cells) were resuspended to 1×10^6 and 2×10^6 cells/mL and 100 microliters added to the target cells in 96-well flat-bottom plates to provide effector:taiget ratios of 5:1 and 10:1. After incubating for 8 h, 20 microliters (5 g/L) of MTT were added and incubated for 4 hours. The supernatant was removed and the formazan resuspended in 100 microliters isopropanol. Optical density was measured at 550 nm and the percent of specific cytotoxicity calculated as follows:
as §2

IgG and IgM = test: Plasma IgG and IgM in cats (ELISA); format: in vivo, cat
Protocol: as §1
IgG and IgM. Plasma concentrations of IgG (sheep anti-IgG; sensitivity=16 μg/L) and IgM (goat anti-IgM; sensitivity=31 μg/L) were analyzed by ELISA using a commercial kit (Bethyl Lab., Inc., Montgomery, Tex.).

[8] = system: peripheral blood mononuclear cell (PBMC); test: Lymphoproliferation in cats (whole blood); format: in vivo, cat
Protocol: Lymphoproliferation. Mitogen-induced peripheral blood mononuclear cell (PBMC) proliferation was assessed by incubating whole blood in the presence of PHA (0.25 and 1.25 mg/L final concentration), con A (0.5 and 2.5 mg/L), and pokeweed mitogen (PWM; 0.025 and 0.125 mg/L) as previously described (Chew et al., 2000). Whole blood was used in order to simulate in vivo conditions. Results are reported as stimulation index (cpm of mitogen-stimulated÷cpm of unstimulated cultures).

[9] = post-vaccination week 12, 10 mg

plasma astaxanthin concentrations ([1]; at week 8): rapid initial increase | absorption of dietary astaxanthin ([4]; domestic cats): able to absorb dietary astaxanthin
Compound: CC1=C(/C=C/C(C)=C/C=C/C(C)=C/C=C/C=C(C)/C=C/C=C(C)/C=C/C2=C(C)C(=O)C(O)CC2(C)C)C(C)(C)CC(O)C1=O (stereo not drawn) [astaxanthin, 3,3′-dihydroxy-beta, beta-carotene-4,4′-dione]
plasma astaxanthin concentrations ([1]; cats fed 1, 5 or 10 mg daily): generally a dose-dependent increase; also recorded: dose-related increase in plasma astaxanthin | plasma astaxanthin ([1]; week 8 through week 12): continued to increase, albeit more gradually | plasma C-reactive protein concentrations (C-reactive protein (CRP); post-vaccination, week 16): decreased plasma C-reactive protein concentrations; also recorded: lower concentrations of circulating CRP | plasma CRP concentrations between diets (C-reactive protein (CRP); through week 12): similar | plasma CRP concentration averaged (C-reactive protein (CRP); through week 12, average over diets): 4.48 mg/L | lipid peroxidation (lipid peroxidation): reduced lipid peroxidation | body weight between treatments ([2]; cats fed 0, 1, 5 or 10 mg daily, 12 weeks): not significantly different between treatment | body weight averaged ([2]; week 12, average over all diets): 3.22 ± 0.06 kg | NK cell cytotoxic activity ([3]; week 8): no dietary treatment differences | NK cell cytotoxic activity ([3]; week 12, effector:target ratio 5:1, 5 and 10 mg): stimulated NK cell cytotoxic activity | NK cell cytotoxic activity ([3]; week 12, effector:target ratio 10:1, 1, 5 and 10 mg): stimulated NK cell cytotoxic activity | lipoprotein association of circulating astaxanthin ([4]; cats): associated with high-density lipoprotein (HDL) | uptake by blood and blood leukocytes (sub-cellular organelles) ([4]; domestic cats fed astaxanthin): significant uptake by the blood and by all sub-cellular organelles of blood leukocytes; also recorded: significantly absorbed by blood leukocytes | population of CD5+ total T cells [5]: increased the populations; also recorded: increase in the populations of total T and Th lymphocytes | plasma 8-OHdG concentrations ([6]; dogs fed 40 mg versus lower doses): no further decrease | plasma 8-OHdG production ([6]; supplemented dogs, as with C-reactive protein (post-vaccination)): inhibited the production of 8-OHdG | plasma 8-OHdG concentration ([6]; wk 12): no dietary influence | NK cell activity ([7]; week 6): dose-dependent increase in NK cell activity | NK cell activity ([7]; week 6, dogs fed 30 mg): significantly higher than control | NK cell cytotoxic activity ([7]; week 12, 20 mg): higher NK cell cytotoxic activity than control | NK cell cytotoxic activity ([7]; week 16 (trend as week 12: 20 mg higher, 40 mg not)): same trend continued through week 16 | plasma IgG concentration (IgG and IgM; post-vaccination week 12, 5 mg): only those fed 5 mg astaxanthin were significant | plasma IgM concentration (IgG and IgM; post-vaccination week 12, 5 mg): only those fed 5 mg astaxanthin were significant | plasma IgG concentration (IgG and IgM; [9]): still numerically higher | plasma IgM concentration (IgG and IgM; [9]): still numerically higher | plasma IgG concentration (IgG and IgM; week 8, 10 mg): higher | plasma IgM concentration (IgG and IgM; week 8, 10 mg): higher | proliferative response to ConA ([8]; 1 mg, post-vaccination week 12): higher proliferative response | proliferative response to PHA ([8]; 1 mg, post-vaccination week 12): higher proliferative response | proliferative response to PWM ([8]; 1 mg, post-vaccination week 12): higher proliferative response | mitogen-induced PBMC proliferation ([8]; by week 8): did not influence
